This note sets out measurements from patent EP2799533A1, “Protease and inhibitor containing water-soluble films” (Novozymes A/S, priority 2013, dated 2014).

Assay type in all cases: biochemical
Test [1] concerns the target T1, Savinase (Lederbergia lenta, UniProt P29600).
T1 construct: purchased Novozymes A/S, Denmark
T1 sequence (P29600 1-269): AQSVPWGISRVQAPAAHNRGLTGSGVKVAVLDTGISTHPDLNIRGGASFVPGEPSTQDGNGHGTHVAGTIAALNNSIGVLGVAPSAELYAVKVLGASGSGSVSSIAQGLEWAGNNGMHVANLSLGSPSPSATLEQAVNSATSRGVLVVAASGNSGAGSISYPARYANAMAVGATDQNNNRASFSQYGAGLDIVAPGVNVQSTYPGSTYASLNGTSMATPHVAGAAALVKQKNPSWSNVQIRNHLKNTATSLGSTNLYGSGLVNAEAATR
In words: Residual enzymatic activity of protease in water-soluble film after film production. The method, then:
(§1) We prepared two different enzyme containing water-soluble films, as outlined in Table 1 below. The films were produced under normal film production conditions. Later, the films were analyzed to estimate the enzymatic activity remaining after the production process, i.e., the percentage of residual enzymatic activity in the final film product, as compared to the amount of enzyme added in the production process.
The protease used for preparing the films was Savinase (Novozymes A/S, Denmark), which was added to obtain a final concentration of 1.1 % wt active enzyme protein in both of the water-soluble films.
(§2) The protease inhibitor used was 4-formyl-phenyl-boronic acid (4-FPBA), which was added to obtain a final concentration of 0.5% wt in one of the water-soluble films.
(§3) Since the humidity of the samples was not controlled, some of the absolute values from the analysis are above 100%. However, all film samples were treated identically and analyzed at the same time, and therefore the relative improvement by using the protease inhibitor can be calculated. Table 1. The data are based on an average of three analyses of each film.

The test system of test [2] is Stainzyme. The experiment in a line: Residual enzymatic activity of amylase in water-soluble film after film production. The method, then: as §1
The amylase used was Stainzyme (Novozymes A/S, Denmark), which was added to obtain a final concentration of 0.1 % wt active enzyme protein in both of the films.
as §2, §3

The subject of test [3] is Mannaway. The experiment in a line: Residual enzymatic activity of mannanase in water-soluble film after film production. The note with it: Mannanase (Mannaway, 0.03% wt) in film with Savinase protease; 0.5% wt 4-FPBA; vs. amount of enzyme added; average of three analyses; film without 4-FPBA: 1%. On the procedure: as §1
The mannanase used was Mannaway (Novozymes A/S, Denmark), which was added to obtain a final concentration of 0.03% wt active enzyme protein in both of the films.
as §2, §3

Turning to `O=Cc1ccc(B(O)O)cc1` [4-FPBA, 4-formyl-phenyl-boronic acid], the “Residual activity in film made with 4-FPBA” value is 93% in test [1] (Protease (Savinase, 1.1 % wt) in film also holding amylase and mannanase, 0.5% wt 4-FPBA, vs. amount of enzyme added, average of three analyses, film without 4-FPBA: 87%); 114% in test [2] (Amylase (Stainzyme, 0.1 % wt) in film with Savinase protease, 0.5% wt 4-FPBA, vs. amount of enzyme added, average of three analyses, humidity not controlled, values above 100%, film without 4-FPBA: 106%); 63% in test [3]. For the same compound, the “Relative improvement by using inhibitor” value came to 7% in test [1] (Protease, film with 0.5% wt 4-FPBA vs. film without 4-FPBA) and 8% in test [2] (Amylase, film with 0.5% wt 4-FPBA vs. film without 4-FPBA).
